According to patent publication US20090325960A1, “METHOD FOR TREATING INFLAMMATORY DISEASES USING RHO KINASE INHIBITOR COMPOUNDS” (priority 2008, published 2009):
Like-named read-outs stand apart in the source and are kept apart here.

How the values were obtained:
[1] = system: VEGF-induced angiogenesis; details: 100 μM; cited from earlier work
[2] = system: monocytes, endothelial cells, and lymphocytes; details: cited from earlier work
human neutrophils = assay: Human neutrophil chemotaxis (fMLP-induced, Boyden chamber); format: cell-based; details: average
Procedure: Peripheral blood from healthy human volunteers was collected and the neutrophils were isolated by Ficoll-paque density centrifugation followed by dextran sedimentation and hypotonic lysis of the red blood cells. Neutrophil chemotaxis was assessed using a modified Boyden Chamber (Neuroprobe, 96-well) with a 3 μm pore polycarbonate membrane. The ability of the tested compounds to block chemotaxis induced by a 1 μM fMLP challenge during a one hour incubation at 37° C. with 5% CO2 was assessed in a dose response manner.

[3] = Compound plasma concentrations in unsensitized mice at 15 min post administration; format: in vivo; details: mouse, 15 μmol/kg; mean plasma concentration in mice at 15 minutes post oral administration; read-out: Mouse Oral PK
Akt3 human enzyme = target: T1, Akt3 human enzyme (Homo sapiens, UniProt Q9Y243); assay: Akt3 inhibition assay (IMAP FP); format: biochemical
T1 construct: purchased Upstate Chemicon 14-502
Procedure: (§3) Inhibition of Akt3 and p70S6K activity was determined using the IMAP™ FP Progressive Binding Kit (Molecular Devices product number R8127). […] Following the pre-incubation, 30 μM ATP was added to initiate the reaction. After 60 minutes at RT, Molecular Devices IMAP™ binding solution was added to bind phosphorylated substrate. After 30 minutes of incubation in the presence of the IMAP™ beads the fluorescence polarization was read and the ratio was reported as mP. IC50 results were calculated using the Prism software from Graphpad. The Ki values were determined according to the following formula: Ki=IC50/(1+([ATP Challenge]/EC50 ATP)).

p70S6K human enzyme = p70S6K human enzyme (Homo sapiens, UniProt P23443, T412E); assay: p70S6K inhibition assay (IMAP FP); format: biochemical
Procedure: as §3

[4] = system: A-10 rat thoracic aorta cells; assay: PDGF-stimulated smooth muscle cell proliferation assay (BrdU incorporation); format: cell-based
Procedure: Effects on cell proliferation were measured using a bromodeoxyuridine (BrdU) incorporation assay. […] Serum free media containing 0.1% BSA was added to the cells. 24 hours later the media was removed and replaced with warmed serum free media. […] Proliferation was then monitored using the BrdU Cell Proiferation Assay, HTS (Calbiochem cat. # HTS01). BrdU was allowed to incorporate into cells for 24 hours prior to the addition of fixative/denaturing solution and the fluorometric detection of incorporated BrdU using a BrdU antibody as per manufacturer's directions. Data are reported as a percent of the PDGF-stimulated BrdU incorporation.

[5] = system: cytokine secretion from LPS-stimulated human monocytes; assay: Human monocyte cytokine secretion assay (LPS-stimulated); format: cell-based
Procedure: Peripheral blood from healthy human volunteers was collected and the monocytes isolated via Ficoll-paque density centrifugation. […] The cells were allowed to pre-incubate with test compound at the indicated concentration for 30 minutes (37° C., 5% CO2, humidified air); after which the supernatant was removed and media containing compound and 1 ng/mL LPS was added. Cells were allowed to incubate with compounds and LPS for 4 hours at 37° C. after which the supernatant was removed and stored at −80° C. Cytokine concentrations in the supernatant were determined using commercially available Bio-Rad Bio-Plex™ kits according the manufacturer's instructions.

ROCK1 = target: T2, ROCK1 (Homo sapiens, UniProt Q13464); assay: Rho kinase inhibition assay (IMAP fluorescence polarization), ROCK1; format: biochemical
T2 construct: purchased Upstate/Chemicon 14-601
Procedure: Following the pre-incubation, 10 μM ATP was added to initiate the reaction. After 60 minutes at room temperature, Molecular Devices IMAP™ binding solution was added to bind phosphorylated substrate. After 30 minutes of incubation in the presence of the IMAP™ beads, the fluorescence polarization was read and the ratio was reported as mP. IC50 values for compounds and EC50 values for ATP were calculated using the Prism software from Graphpad.

murine eosinophils = assay: Murine eosinophil chemotaxis (eotaxin-induced); format: cell-based, mouse; details: 10 nM eotaxin challenge
Procedure: Mouse Eosinophil Isolation: Bronchoalveolar lavage was collected from ovalbumin sensitized and challenged mice in a volume of 2.5 mL lavage buffer. The lavage buffer was 0.9% saline with 10% fetal bovine serum. The pooled lavages were maintained on ice until use. The murine eosinophils were isolated using MACS cell separation (Miltenyi Biotech) by depletion of B cells and T cells by positive selection following incubation with antibody conjugated magnetic beads specific for CD45-R (B220) and CD90 (Thy 1.2), which bind B cells and T cells, respectively.
(§1) In Vitro Chemotaxis: Eosinophil chemotaxis was assessed using a modified Boyden Chamber (Neuroprobe, 96-well) with a 5 μm pore membrane. The ability of the tested compounds to block chemotaxis induced by a 10 nM eotaxin challenge (mouse) or 1 nM eotaxin challenge (human) during one hour incubation at 37° C. with 5% CO2 was assessed.

human eosinophils = assay: Human eosinophil chemotaxis (eotaxin-induced); format: cell-based; details: 1 nM eotaxin challenge
Description: Human Eosinophil Isolation: Peripheral blood from healthy human volunteers was collected and the PMNs separated via Ficoll-paque density centrifugation followed by hypotonic lysis of the red blood cells. Subsequently, the human eosinophils were isolated from the cell suspension via StemCell Technologies Human Eosinophil Enrichment kit (Cat. No 19256) according to the manufacturer's recommendations. Briefly, unwanted cells were specifically labeled with dextran-coated magnetic nanoparticles using bispecific Tetrameric Antibody Complexes (TAC) directed against cell surface antigens on human blood cells: CD2, CD3, CD14, CD16, CD19, CD20CD36, CD56, CD123, glycophorin A and dextran. The unwanted cells are then separated from the unlabelled eosinophils using the EasySep® magnetic isolation procedure.
as §1

[6] = system: ova-sensitized, ova-challenged BALB/c mice; assay: In vivo anti-inflammatory activity, mouse ovalbumin sensitization model (BALF cells and cytokines)
Procedure: Upon arrival, the animals were randomized into groups of five males per cage and assigned to a dosing group. Animals were quarantined for 7 days under test conditions. […] Animals were sensitized on day 0 and 14 of study by an intraperitoneal injection with 20 μg of ovalbumin (ova) and 2.0 mg aluminum hydroxide (alum) which initiates the development of a specific T-helper (Th) cells type 2 resulting in asthmatic animals (denoted as Ova in the fugures). One group of animals received an injection of saline to use as control animals (denoted as normal in the figures). […] Aerosol challenge consists of using an Aerogen Aeroneb nebulizer and controller with a particle size of 4-6 μm mass median aerodynamic diameter (MMAD) with a distribution of 400 μl per minute. This aerosol challenge is necessary to target the Th2-driven allergic inflammation in the lower airways.
The anti-inflammatory dosing paradigm (FIG. 5) was utilized to evaluate the anti-inflammatory effects of experimental compounds. […] On day 32 of the experiment, after measurement of airway hyperreactivity, BALF was collected and all animals were anesthetized, bled and euthanized.
Bronchoalveolar lavage fluid (BALF) was collected by infusing 3.0 ml of saline with 10% fetal calf serum into the lungs via the trachea and then withdrawing the fluid. The total amount of cells/ml of BALF fluid was determined via manual cell count on hemocytometer. The BALF was centrifuged, supernatant removed and analyzed for cytokine concentrations as described below, and cell pellet reconstituted in 500 μL of fluid. Cytospin slides were prepared from the cell pellet using 100 μL of fluid and spinning samples for 5 minutes at 5000 rpms in a cytospin centrifuge, Following Hema3 stain, relative percentages of individual leukocytes were determined on a 200 cell count for each sample. The final concentration of individual leukocyte cell types per ml of BALF was determined by multiplication of the relative percentage of individual leukocytes with the total amount of cells/ml of BALF fluid.
The concentrations of cytokines in the BALF samples were determined using commercially available Bio-plex kits (Bio-Rad) for the detection of mouse IL-5, IL-13, and Eotaxin. The analysis of cytokine levels was measured using the Bio-Plex 200 (Bio-Rad) system according to the manufacturer's instructions.

[7] = system: ova-sensitized, ova-challenged BALB/c mice; assay: Prevention of airway hyperreactivity (Penh, methacholine) in mouse ovalbumin sensitization model; format: in vivo; details: for airway hyperreactivity: intratracheal once a day
Procedure: The anti-inflammatory dosing paradigm consists of dosing the animals once a day starting on day 27 and finishing on either day 30 or 31 (1 hr prior to the aerosolized ovalbumin challenges on days 28 to 30) but not on day 32 when hyperreactivity evaluation occurs. […] Exposure to the methacholine doses consisted of a 3 minute period during which a nebulizer was aerosolizing the methacholine and an additional 3 minute period following the cessation of nebulization. […] Enhanced pause (Penh), a unitless index of airway hyperreactivity, is derived from the expiratory side of the respiratory waveform measured via the plethysmograph and is used as an indirect measure of airway resistance and hyperreactivity. […] Following the methacholine dose response, BALF was collected and all animals were anesthetized, bled and euthanized. […] The Penh value at each of the dose levels of methacholine represents the 6-minute average response. Change from baseline (CFB) in Penh was calculated at each methacholine dose and the area under the curve (AUC) for these CFB values was calculated using the trapezoidal rule. This same approach was applied for each mouse across multiple experiments. […] Data from equal experimental conditions across experiments performed on different days were pooled for statistical analysis and data reporting. […] A random intercept for each experiment was assumed to account for possible similarities of the results obtained from a given experiment (i.e., as a “blocking effect”). […] For FIG. 11, linear AUC values from compound treated mice were reported as a percent of linear AUC values from vehicle-treated ovalbumin-sensitized/ovalbumin-challenged (asthmatic) mice.

[8] = Rat oral pharmacokinetics (plasma); format: in vivo; details: rat oral PK, mean of n = 3 rats
Procedure: Plasma (EDTA K2 anticoagulant) was collected from male, cannulated, CD Sprague Dawley rats to determine the pharmacokinetics of formulations containing compound inhibitors of Rho kinase. Each animal was dosed orally with a 4 ml/kg solution or suspension of each test compound in 10 mM acetate buffered saline, pH 4.5 at a final concentration range of 20-30 mol/kg. Blood was collected at 0.25, 0.5, 1, 2, 4, 6, 8, and 24 hours. Plasma samples were assayed for the concentration of the test compound using an on-line, solid phase extraction LC/MS/MS analysis system.
Pharmacokinetic analyses were performed using WinNonlin software version 5.2 (Pharsight Corporation, Mountain View, Calif.).
As determined from the plasma concentration versus time curves, the time to peak and peak exposure are represented by the values Tmax and Cmax, respectively. The AUC values (nM*hr) shown were calculated as the areas under the plasma concentration versus time curves from time zero through the time of the last observable value and represent the total exposure of the compound over the course of the study. Half-life values or the amount of time required for the plasma levels of the compound to decline to half the initial value are represented as t1/2.

[9] = Compound concentrations in lungs of ova-sensitized mice post IP, PO and IT administration; format: in vivo; details: male, Balb/c, mouse, lung, other: intratracheal (IT), BD model, IT 5 μmol/kg, read-out: Lung, nM (plasma corrected lung concentration)
Procedure: Additionally, compound concentrations were determined in the plasma and lungs of male, ovalbumin-sensitized, Balb/c mice from a murine model of asthma. Test compounds were formulated in water or 1% polysorbate 80 and dosed at 15 μmol/kg for intraperitoneal (IP) or oral (PO) administration or formulated for intratracheal (IT) administration and dosed at 5 μmol/kg, which directly targets the lungs. Following completion of the in vivo study, mice were euthanized and blood and plasma collected approximately 2.5-3 hours post administration of test compound for bronchodialator (BD) studies and 24 hours post administration for anti-inflamatory (AI) studies. Lungs were homogenized in Matrix A lysing tubes using a FastPrep 24 tissue and cell homogenizer (MP Biomedicals, Solon, Ohio). Both plasma samples and lung extracts were assayed for compound concentrations using an on-line, solid phase extraction LC/MS/MS system. The actual lung tissue concentrations of each compound in mouse were extrapolated from the lung and plasma concentrations, data are shown in Table 11. The results of a set of experiments using unsensitized mice and collecting only plasma 15 minutes post administration of test compounds are shown in Table 12.

[10] = system: LPS-challenged BALB/c mice; assay: LPS-induced neutrophilia and cytokine production assay; format: in vivo, mouse; details: for IL-1β levels in BALF: intratracheal administration, LPS-challenged animals
Procedure: Male BALB/c mice, approximately 19 to 21 grams, were ordered from Charles River Laboratories (Raleigh, N.C.). All animals were challenged with aerosolized LPS (10 μg/ml) for 25 minutes on study day 0. LPS aerosol was generated using an Aerogen Aeroneb nebulizer and controller providing a flow of 400 μl/min and a particle size of 2-4 μm MMAD. Rolipram was administered i.p at 20 mg/kg. […] Four hours following LPS challenge, BALF was collected using a total of 3 ml of 0.9% sodium chloride containing 10% fetal calf serum. Total cell counts were determined using the Coulter Counter. For differential evaluations, BALF was centrifuged and cytospin slides prepared and stained with Hema3 stain. Manual leukocyte counts were then completed on 200 cells. The final concentration of individual leukocyte cell types per ml of BALF was determined by multiplication of the relative percentage of individual leukocytes with the total amount of cells/ml of BALF fluid. The concentration of IL-1β in the BALF samples was determined using commercially available Bio-plex kits (Bio-Rad). The analysis of cytokine levels was measured using the Bio-Plex 200 (Bio-Rad) system according to the manufacturer's instructions.

ERK2 = target: T3, ERK2 (Homo sapiens, UniProt P28482); assay: Kinase panel screen (KinaseProfiler), ERK2; format: biochemical; details: 1 μM test compound, 10 μM ATP; read-out: Percent inhibition ERK2 at 1 μM
T3 construct: purchased Upstate, Millipore Bioscience Division (KinaseProfiler service)
Procedure: (§2) Compounds of Formulae I and II were examined for activity against a selected panel of kinases using the KinaseProfiler™ enzyme profiling services (Upstate, Millipore Bioscience Division). Percent kinase activity at 10 μM and 1 μM test compound and 10 μM ATP was determined against 40 wild-type recombinant human kinases according to Upstate's standard protocol: ASK1, BTK, CSK, c-RAF, GCK, GSK3β, IKKα, IKKβ, IRAK1, IRAK4, JNK1α1, JNK2α2, JNK3, ERK1, ERK2, MAPKAP-K2, MAPKAP-K3, MEK1, MKK4, MKK6, MKK7β, Mnk2, MSK1, PAK3, PDK1, PRAK, ROCK1, Rsk2, SAPK2a, SAPK2b, SAPK3, SAPK4, SRPK1, SRPK2, Syk, TAK1, TBK1, PI3-Kβ, PI3-Kγ, PI3-Kδ.

Mnk2 = target: T4, Mnk2 (Homo sapiens, UniProt Q9HBH9); format: biochemical
T4 construct: purchased Upstate, Millipore Bioscience Division (KinaseProfiler service)
Procedure: as §2

ERK1 = target: T5, ERK1 (Homo sapiens, UniProt P27361); assay: Kinase panel screen (KinaseProfiler), ERK1; format: biochemical; details: 1 μM test compound, 10 μM ATP
T5 construct: purchased Upstate, Millipore Bioscience Division (KinaseProfiler service)
Procedure: as §2

[11] = 10 μM of test compound, 1 ng/mL LPS, 4 hours, read-out: IL-1β % (Percent inhibition values for inhibition of cytokine secretion)
[12] = read-out: IL-6 % (Percent inhibition values for inhibition of cytokine secretion), 10 μM of test compound, 1 ng/mL LPS, 4 hours
[13] = 15 μmol/kg/oral on days 27 to 31

p70S6K human enzyme, sequence (P23443 whole entry T412E): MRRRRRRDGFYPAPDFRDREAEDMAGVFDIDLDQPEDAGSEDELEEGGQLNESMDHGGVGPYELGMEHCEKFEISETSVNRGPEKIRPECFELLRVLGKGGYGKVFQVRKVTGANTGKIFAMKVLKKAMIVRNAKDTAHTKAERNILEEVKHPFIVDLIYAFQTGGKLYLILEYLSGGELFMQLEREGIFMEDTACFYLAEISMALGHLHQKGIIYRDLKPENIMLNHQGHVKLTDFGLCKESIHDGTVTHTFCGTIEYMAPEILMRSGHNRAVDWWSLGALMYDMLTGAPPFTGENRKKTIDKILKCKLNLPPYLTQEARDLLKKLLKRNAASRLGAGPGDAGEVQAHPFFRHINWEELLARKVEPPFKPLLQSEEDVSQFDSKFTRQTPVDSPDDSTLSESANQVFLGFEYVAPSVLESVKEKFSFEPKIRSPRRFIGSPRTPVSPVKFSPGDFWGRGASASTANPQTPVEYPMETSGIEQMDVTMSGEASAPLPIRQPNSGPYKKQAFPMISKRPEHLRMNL
T1 sequence (Q9Y243 whole entry): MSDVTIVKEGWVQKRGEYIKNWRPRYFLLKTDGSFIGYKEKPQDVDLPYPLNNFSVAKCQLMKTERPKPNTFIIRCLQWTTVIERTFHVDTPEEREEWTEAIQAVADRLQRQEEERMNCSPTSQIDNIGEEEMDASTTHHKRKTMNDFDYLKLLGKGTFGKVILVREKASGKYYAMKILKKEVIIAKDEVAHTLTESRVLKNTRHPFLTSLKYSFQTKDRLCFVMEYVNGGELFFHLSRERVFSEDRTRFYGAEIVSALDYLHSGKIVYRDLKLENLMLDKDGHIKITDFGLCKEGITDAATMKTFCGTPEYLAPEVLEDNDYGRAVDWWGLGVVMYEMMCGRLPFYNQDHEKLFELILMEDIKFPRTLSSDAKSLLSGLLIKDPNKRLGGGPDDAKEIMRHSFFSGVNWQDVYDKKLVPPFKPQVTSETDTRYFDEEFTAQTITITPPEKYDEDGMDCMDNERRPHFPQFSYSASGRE
T2 sequence (Q13464 17-535 limits assumed): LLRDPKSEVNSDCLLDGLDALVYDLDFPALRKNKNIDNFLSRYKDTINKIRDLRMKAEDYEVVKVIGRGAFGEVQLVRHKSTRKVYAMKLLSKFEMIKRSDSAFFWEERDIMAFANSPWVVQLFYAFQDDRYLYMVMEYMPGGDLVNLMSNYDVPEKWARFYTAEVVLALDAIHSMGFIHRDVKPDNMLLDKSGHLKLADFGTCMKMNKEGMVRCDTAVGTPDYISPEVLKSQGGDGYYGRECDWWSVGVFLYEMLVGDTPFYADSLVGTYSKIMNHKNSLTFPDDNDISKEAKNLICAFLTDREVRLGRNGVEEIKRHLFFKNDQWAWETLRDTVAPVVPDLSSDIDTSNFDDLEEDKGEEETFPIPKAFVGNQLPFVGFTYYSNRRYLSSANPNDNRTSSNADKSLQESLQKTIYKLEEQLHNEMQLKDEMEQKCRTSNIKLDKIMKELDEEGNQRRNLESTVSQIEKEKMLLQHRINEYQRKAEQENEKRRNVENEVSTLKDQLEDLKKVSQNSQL
T3 sequence (P28482 whole entry): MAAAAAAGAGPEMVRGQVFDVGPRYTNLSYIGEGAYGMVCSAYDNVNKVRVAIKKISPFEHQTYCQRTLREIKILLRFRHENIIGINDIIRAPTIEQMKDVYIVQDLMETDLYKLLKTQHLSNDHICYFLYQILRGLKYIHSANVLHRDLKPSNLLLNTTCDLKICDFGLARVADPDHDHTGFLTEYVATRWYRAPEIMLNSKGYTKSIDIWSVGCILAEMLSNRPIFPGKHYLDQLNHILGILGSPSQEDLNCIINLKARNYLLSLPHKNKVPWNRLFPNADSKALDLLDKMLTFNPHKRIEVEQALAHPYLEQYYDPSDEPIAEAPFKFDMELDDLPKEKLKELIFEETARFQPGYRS
T4 sequence (Q9HBH9 whole entry): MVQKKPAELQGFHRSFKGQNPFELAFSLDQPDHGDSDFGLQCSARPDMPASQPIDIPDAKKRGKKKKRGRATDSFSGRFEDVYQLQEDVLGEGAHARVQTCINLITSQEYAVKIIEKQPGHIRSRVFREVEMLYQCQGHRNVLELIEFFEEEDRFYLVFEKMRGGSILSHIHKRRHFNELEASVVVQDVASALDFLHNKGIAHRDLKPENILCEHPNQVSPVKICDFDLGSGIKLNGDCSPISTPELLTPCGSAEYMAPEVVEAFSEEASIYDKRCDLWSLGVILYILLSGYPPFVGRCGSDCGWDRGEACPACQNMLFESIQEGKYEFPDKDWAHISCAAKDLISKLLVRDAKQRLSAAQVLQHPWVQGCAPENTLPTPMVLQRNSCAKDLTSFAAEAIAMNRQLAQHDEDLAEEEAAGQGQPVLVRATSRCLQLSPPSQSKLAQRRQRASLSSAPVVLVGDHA
T5 sequence (P27361 whole entry): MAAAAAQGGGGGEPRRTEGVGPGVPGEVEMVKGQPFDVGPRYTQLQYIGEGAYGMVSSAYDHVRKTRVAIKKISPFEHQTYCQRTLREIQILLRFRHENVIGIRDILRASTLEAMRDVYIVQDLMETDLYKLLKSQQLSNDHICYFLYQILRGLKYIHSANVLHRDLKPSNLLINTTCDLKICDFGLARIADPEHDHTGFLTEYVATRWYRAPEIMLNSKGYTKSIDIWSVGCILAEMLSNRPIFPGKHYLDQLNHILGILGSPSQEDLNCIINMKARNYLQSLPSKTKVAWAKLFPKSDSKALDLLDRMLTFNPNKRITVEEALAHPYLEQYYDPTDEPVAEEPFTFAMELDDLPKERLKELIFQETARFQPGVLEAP

With `O=S(=O)(c1cccc2cnccc12)N1CCCNCC1` [Fasudil] as the compound, how does the new vessel formation [1] read?
Its new vessel formation is “new vessel formation was prevented”.

What about the “expression of IL-1β, TNFα, and various other cytokines” value [2] of the same compound?
The value was “suppress expression”.

With `CS(=O)(=O)Nc1cccc(CN2CCC[C@@H](Nc3ccc4[nH]ncc4c3)C2)c1` [Compound 1.093, (R)-N-(3-((3-(1H-indazol-5-ylamino)piperidin-1-yl)methyl)phenyl)methanesulfonamide] as the compound, how does the IC50 (human neutrophils) read?
Its IC50 is 363000 nM.

For `Cc1ccc(CN2CC[C@@H](Nc3cccc4cnccc34)C2)cc1OCCO` [Compound 2.064, (R)-2-(5-((3-(isoquinolin-5-ylamino)pyrrolidin-1-yl)methyl)-2-methylphenoxy)ethanol], which concentration at 15 min [3] is on record?
The concentration at 15 min was 202 nM.

And the Ki (Akt3 human enzyme; average, read-out: Akt3 Ki)?
Its Ki is 382 nM.

And the Ki (Akt3 human enzyme; read-out: Akt3 Ki, Avg)?
Its Ki is 382 nM.

What about the Ki (p70S6K human enzyme; average, read-out: p70S6K Ki) of the same compound?
The Ki was 178 nM.

What about the Ki (p70S6K human enzyme; read-out: p70S6K Ki, Avg) of the same compound?
The Ki was 178 nM.

What about the “Percent of PDGF Induced Proliferation at 1 μM Avg” value ([4]; 1 μM, 10 ng/mL PDGF) of the same compound?
Its value is 53.1%.

And the “Percent of PDGF Induced Proliferation at 10 μM Avg” value ([4]; 10 μM, 10 ng/mL PDGF)?
The value was 56.2%.

What about the “Proliferation at 1 μM” value ([4]; average percent of PDGF stimulated proliferation at 1 μM test compound) of the same compound?
The value was 53.1%.

And the “Proliferation at 10 μM” value ([4]; average percent of PDGF stimulated proliferation at 10 μM test compound)?
The value was 56.2%.

What about the activity at 10 µM [5, 11] of the same compound?
The activity at 10 µM was 14.3%.

What about the activity at 10 µM ([5]; 10 μM of test compound, 1 ng/mL LPS, 4 hours, read-out: TNF-α % (Percent inhibition values for inhibition of cytokine secretion)) of the same compound?
Its activity at 10 µM is 66.2%.

And the activity at 10 µM [5, 12]?
Its activity at 10 µM is 45.7%.

And the Ki (ROCK1)?
Its Ki is 4.1 nM.

What about the Ki (ROCK1; read-out: ROCK1 Ki, average) of the same compound?
The Ki was 4.1 nM.

With `CS(=O)(=O)Nc1cccc(CN2CC[C@@H](Nc3cccc4cnccc34)C2)c1` [Compound 2.038, (R)-N-(3-((3-(isoquinolin-5-ylamino)pyrrolidin-1-yl)methyl)phenyl)methanesulfonamide] as the compound, how does the “inhibition of eotaxin-induced murine eosinophil chemotaxis” value (murine eosinophils) read?
The value was “inhibited”.

What about the “inhibition of eotaxin-induced human eosinophil chemotaxis” value (human eosinophils) of the same compound?
Its value is “inhibited”.

What about the “concentration of Eotaxin in BALF” value [6, 13] of the same compound?
Its value is “reduced levels”.

What about the “concentration of IL-5 in BALF” value [6, 13] of the same compound?
Its value is “reduced levels”.

And the “concentration of IL-13 in BALF” value [6, 13]?
The value was “reduced levels”.

What about the “airway eosinophil infiltration (eosinophils per ml of BALF)” value ([6]; dosed orally to day 31, anti-inflammatory dosing paradigm) of the same compound?
The value was “reduced”.

What about the “airway hyperreactivity to metacholine on Day 32” value ([7]; oral 15 μMol/kg once a day, days 27 to 31) of the same compound?
The value was “prevention of airway hyperreactivity”.

For `CS(=O)(=O)Nc1cccc(CN2CCC[C@H](Nc3ccc4[nH]ncc4c3)C2)c1` [Compound 1.091, (S)-N-(3-((3-(1H-indazol-5-ylamino)piperidin-1-yl)methyl)phenyl)methanesulfonamide], which Cmax [8] is on record?
The Cmax was “BLQ”.

What about the Tmax [8] of the same compound?
Its Tmax is “BLQ”.

And the Vz_F [8]?
Its Vz_F is “BLQ”.

And the t½ [8]?
Its t½ is “BLQ”.

And the “AUC (0-last)” value ([8]; time zero through last observable value)?
Its value is “BLQ”.

What about the concentration at 2.5 h [9] of the same compound?
Its concentration at 2.5 h is 123 nM.

What about the “eosinophil influx (BALF)” value ([6]; dosed i.t. to day 30, anti-inflammatory dosing paradigm) of the same compound?
The value was “reduction of eosinophils”.

What about the “IL-1β levels in BALF” value [10] of the same compound?
The value was “reduction in IL-1β”.

What about the “LPS-induced pulmonary neutrophilia influx (BALF)” value ([10]; intratracheal dosing one hour prior to LPS challenge) of the same compound?
Its value is “significant reduction”.

And the activity at 10 µM [5, 11]?
The activity at 10 µM was 166%.

What about the airway hyperreactivity ([7]; days 27 to 30) of the same compound?
The airway hyperreactivity was “prevention of airway hyperreactivity”.

Which results are given for `NC(=O)Cn1ccc2cc(CN3CC[C@@H](Nc4cccc5cnccc45)C3)ccc21` [Compound 2.059, (R)-2-(5-((3-(isoquinolin-5-ylamino)pyrrolidin-1-yl)methyl)-1H-indol-1-yl)acetamide]?
activity at 1 µM (ERK2): ~50%; Percent inhibition Mnk2 at 1 μM (Mnk2): 49; IL-1β levels in BALF [10]: reduction in IL-1β; activity at 10 µM [5, 12]: 0%; Percent inhibition at 1 µM (ERK1): ~50%; airway hyperreactivity ([7]; days 27 to 31): prevention of airway hyperreactivity
